{"source": "paper PMC3896228", "about": "“Physalin H from Solanum nigrum as an Hh signaling inhibitor blocks GLI1–DNA-complex formation” (Beilstein Journal of Organic Chemistry, 2014)", "key": {"[1]": {"system": "GLI1 transcriptional activity", "conditions": "cited from earlier work"}, "[2]": {"system": "PANC1", "experiment": "Cytotoxicity test against PANC1", "assay_type": "cell-based", "conditions": "Homo sapiens, PANC-1", "source_text": "(§1) […]. […] […]. […] […]."}, "[3]": {"system": "C3H10T1/2", "experiment": "Cytotoxicity test against C3H10T1/2 normal cells", "assay_type": "cell-based", "conditions": "normal cell line", "source_text": "as §1"}, "[4]": {"experiment": "Cytotoxicity test against C3H10T1/2 normal cells", "assay_type": "cell-based", "conditions": "mouse, C3H10T1/2 cells (normal cell line)", "source_text": "as §1"}, "[5]": {"system": "DU145", "experiment": "Cytotoxicity test against DU145", "assay_type": "cell-based", "source_text": "as §1"}, "[6]": {"system": "assay cells (HaCaT cells expressing exogenous GLI1)", "experiment": "Cytotoxicity against reporter assay cells (cell viability)", "source_text": "(§2) We evaluated the Hh inhibitory activity of the isolated compounds by using a previously described method. […] In addition we always checked the cytotoxicity of the compounds against the assay cells, because a decrease in the number of living cells also correlates with a reduced luciferase activity. […] Further, we examined the cytotoxicity against cancer cells, human pancreatic (PANC1) and prostate (DU145) cancer cell lines, in which Hh signaling is aberrantly activated (Table 1).\n(§3) The NMR measurements were carried out with JEOL ECP400 and ECP600 spectrometers in deuterated solvents and the residual proton chemical shift was taken as an internal standard. MS data were obtained with a JEOL JMS-T100LP (ESI). IR spectra were measured by using the ATR (attenuated total reflection) method on a Jasco FT-IR 230 spectrophotometer. […] The procedures for the GLI1-mediated transcriptional activity assay, Western blot analysis and cytotoxicity test were as previously described. The GST–GLI1 protein was produced as previously described."}, "[7]": {"system": "GLI1 transcriptional activity", "experiment": "cells", "assay_type": "cell-based", "conditions": "for IC50: read-out: GLI1 transcriptional inhibition, IC50", "source_text": "In addition, we evaluated the Hh inhibitory activity by assessing the cytotoxicity against cancer cells and the expression of Hh-related proteins.\nas §2, §3"}, "[8]": {"system": "PANC1", "conditions": "read-out: Cytotoxicity, IC50 PANC1; cited from earlier work"}, "[9]": {"system": "C3H10T1/2", "conditions": "cited from earlier work; for survival of C3H10T1/2 cells: normal cell line; for IC50: read-out: Cytotoxicity, IC50 C3H10T1/2, C3H10T1/2"}, "[10]": {"biological_target": "T1, GLI1–DNA complex (GST–GLI1 171-515aa, GLI1–BS) (Homo sapiens, UniProt P08151)", "T1 construct": "GST–GLI1 (171-515aa); made in house; host or cells: Escherichia coli", "T1 sequence (P08151 171-515)": "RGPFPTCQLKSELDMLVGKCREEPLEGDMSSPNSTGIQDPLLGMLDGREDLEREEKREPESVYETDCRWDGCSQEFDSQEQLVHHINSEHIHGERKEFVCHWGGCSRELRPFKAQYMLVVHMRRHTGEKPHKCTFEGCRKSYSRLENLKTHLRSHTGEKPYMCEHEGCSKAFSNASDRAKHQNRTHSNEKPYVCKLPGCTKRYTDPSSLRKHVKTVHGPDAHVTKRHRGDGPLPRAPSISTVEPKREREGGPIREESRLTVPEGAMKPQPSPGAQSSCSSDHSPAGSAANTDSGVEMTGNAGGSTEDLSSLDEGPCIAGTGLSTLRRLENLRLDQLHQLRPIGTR", "assay_type": "binding", "conditions": "EMSA, 200 μM"}, "[11]": {"system": "PTCH", "experiment": "Western blot analysis of PTCH in GLI1-overexpressing HaCaT cells", "assay_type": "cell-based", "conditions": "3.0 μM, HaCaT cells expressing exogenous GLI1, Western blot", "source_text": "as §1\n(§4) Figure 4 Inhibition of protein expression by compound 1. (A) Western blot analysis of PTCH, BCL-2 protein levels in GLI1-overexpressing HaCaT cells after treatment with 1. (B) Western blot analysis of PTCH, BCL-2 protein levels in DU145 cells after treatment with 1."}, "[12]": {"system": "PTCH", "experiment": "Western blot analysis of PTCH in DU145 cells", "assay_type": "cell-based, human", "conditions": "3.0 μM, DU145 cancer cells", "source_text": "as §1, §4"}, "[13]": {"system": "BCL2", "experiment": "Western blot analysis of BCL2 in GLI1-overexpressing HaCaT cells", "assay_type": "cell-based", "conditions": "3.0 μM, HaCaT cells expressing exogenous GLI1, Western blot", "source_text": "as §1, §4"}, "[14]": {"system": "BCL2", "experiment": "Western blot analysis of BCL2 in DU145 cells", "assay_type": "cell-based, human", "conditions": "3.0 μM, DU145 cancer cells", "source_text": "as §1, §4"}, "[15]": {"conditions": "Homo sapiens, DU-145; read-out: Cytotoxicity, IC50 DU145"}, "[16]": {"conditions": "read-out: GLI1 transcriptional inhibition, IC50"}}, "note": "Where two headings read alike, the source gives them in different places."}
{"smiles": "C=C(C)[C@@H]1CC[C@]2(C(=O)O)CC[C@]3(C)[C@H](CC[C@@H]4[C@@]5(C)[C@H](C=O)[C@@H](O)C(C)(C)[C@@H]5CC[C@]43C)[C@@H]12", "note": "[colubrinic acid, reference compound]", "values": [{"measurement": "IC50", "setting": "[1]; read-out: Hh inhibition IC50", "result": 38000, "unit": "nM"}]}
{"smiles": "CC12C(=O)CC=CC1=CCC1C2CCC2(O)C(=O)OC3(C)C4CC5(C)C(COC16OC23C5C6=O)C(=O)O4", "note": "(centres unmarked) [isophysalin B (4), isophysalin B]", "values": [{"measurement": "IC50", "setting": "[2]", "result": 12, "unit": "µM"}, {"measurement": "survival of C3H10T1/2 cells", "setting": "[3]", "result": "not significantly affected"}, {"measurement": "IC50", "setting": "[4]", "result": "> 12", "unit": "µM"}, {"measurement": "IC50", "setting": "[5]; [15]", "result": "> 12", "unit": "µM"}, {"measurement": "cytotoxicity against assay cells", "setting": "[6]", "result": "low cytotoxicity"}, {"measurement": "IC50", "setting": "[7]", "result": 4.2, "unit": "µM"}]}
{"smiles": "C[C@]12C(=O)C=CCC1=CC[C@@H]1[C@@H]2CC[C@@]2(O)C(=O)O[C@@]3(C)[C@H]4C[C@]5(C)[C@@H](CO[C@@]16O[C@]23[C@H]5C6=O)C(=O)O4", "note": "[physalin B (6), physalin B]", "values": [{"measurement": "IC50", "setting": "[8]", "result": 5.3, "unit": "µM"}, {"measurement": "survival of C3H10T1/2 cells", "setting": "[9]", "result": "not significantly affected"}, {"measurement": "IC50", "setting": "[9]", "result": 17, "unit": "µM"}, {"measurement": "IC50", "setting": "[1]; [16]", "result": 620, "unit": "nM"}]}
{"smiles": "C=C1C(=O)OC2CC1(C)C1C(=O)C3(O)OC14C(O)(CCC1C3CC=C3CC=CC(=O)C31C)C(=O)OC24C", "note": "(centres unmarked) [physalin B (6]", "values": [{"measurement": "IC50", "setting": "[1]; [16]", "result": 620, "unit": "nM"}]}
{"smiles": "C[C@@]12C[C@H]3OC(=O)[C@@H]1CO[C@]14O[C@]5([C@H]2C1=O)[C@@](O)(CC[C@H]1[C@H]4C[C@H]2O[C@]24CC=CC(=O)[C@]14C)C(=O)O[C@@]35C", "note": "[physalin F (5), physalin F]", "values": [{"measurement": "IC50", "setting": "[8]", "result": 2.7, "unit": "µM"}, {"measurement": "survival of C3H10T1/2 cells", "setting": "[9]", "result": "not significantly affected"}, {"measurement": "IC50", "setting": "[9]", "result": 15, "unit": "µM"}, {"measurement": "IC50", "setting": "[1]; [16]", "result": 660, "unit": "nM"}]}
{"smiles": "CC12CC3OC(=O)C1COC14OC5(C2C1=O)C(O)(CCC1C4CC2OC24CC=CC(=O)C14C)C(=O)OC35C", "note": "(centres unmarked) [physalin F (5]", "values": [{"measurement": "IC50", "setting": "[1]; [16]", "result": 660, "unit": "nM"}]}
{"smiles": "C[C@]12C(=O)C=CC=C1[C@@H](O)C[C@@H]1[C@@H]2CC[C@@]2(O)C(=O)O[C@@]3(C)[C@H]4C[C@]5(C)[C@@H](CO[C@@]16O[C@]23[C@H]5C6=O)C(=O)O4", "note": "[physalin G (2), physalin G]", "values": [{"measurement": "IC50", "setting": "[5]; Homo sapiens, DU-145, read-out: Cytotoxicity, IC50 DU145", "result": "> 12", "unit": "µM"}, {"measurement": "formation of GLI1–DNA complex", "setting": "[10]", "result": "did not inhibit"}, {"measurement": "IC50", "setting": "[7]", "result": 47.1, "unit": "µM"}]}
{"smiles": "CC12C(=O)C=CC=C1C(O)CC1C2CCC2(O)C(=O)OC3(C)C4CC5(C)C(COC16OC23C5C6=O)C(=O)O4", "note": "(centres unmarked) [physalin G (2]", "values": [{"measurement": "IC50", "setting": "[7]", "result": 47.1, "unit": "µM"}]}
{"smiles": "CC12CC3OC(=O)C1COC14OC5(C2C1=O)C(O)(CCC1C4CC(O)C2(Cl)CC=CC(=O)C12C)C(=O)OC35C", "note": "(centres unmarked) [physalin H (1), physalin H]", "values": [{"measurement": "IC50", "setting": "[2]", "result": 5.7, "unit": "µM"}, {"measurement": "survival of C3H10T1/2 cells", "setting": "[3]", "result": "not significantly affected"}, {"measurement": "IC50", "setting": "[4]", "result": "> 6", "unit": "µM"}, {"measurement": "expression of PTCH", "setting": "[11]", "result": "inhibited the expression"}, {"measurement": "expression of PTCH", "setting": "[12]", "result": "only slightly affected"}, {"measurement": "IC50", "setting": "[5]; [15]", "result": 6.8, "unit": "µM"}, {"measurement": "expression of BCL2", "setting": "[13]", "result": "inhibited the expression"}, {"measurement": "expression of BCL2", "setting": "[14]", "result": "decreased the expression"}]}
{"smiles": "CC12CC3OC(=O)C1COC14OC5(C2C1=O)C(O)(CCC1C4CC(O)C24C=CC(OO2)C(=O)C14C)C(=O)OC35C", "note": "(centres unmarked) [physalin K (3), physalin K]", "values": [{"measurement": "Hh inhibition", "setting": "[7]", "result": "did not show Hh inhibition at all"}]}
{"smiles": "COC(=O)[C@]1(C)CCC[C@]2(C)c3cc4occc4c(C)c3C[C@@H](OC(C)=O)[C@@H]12", "note": "[taepeenin D, reference compound]", "values": [{"measurement": "IC50", "setting": "[1]; read-out: Hh inhibition IC50", "result": 1600, "unit": "nM"}]}
{"smiles": "C=CC(C)(O)CC[C@@]1(C)C2=C([C@H](OC(C)=O)[C@H](OC(C)=O)[C@H]1C)C(C)(C)CCC2", "note": "(some centres unmarked) [vitetrifolin D, reference compound]", "values": [{"measurement": "IC50", "setting": "[1]; read-out: Hh inhibition IC50", "result": 20200, "unit": "nM"}]}
